Results: patent US11802111B2, “Cyclobutyl amide monoacylglycerol lipase modulators” (Janssen Pharmaceutica NV, priority 2020, dated 2023)

Biological target: human MGL from HeLa cells (Homo sapiens (Human), UniProt Q99685)
Assay: MGL in vitro activity assay ([glycerol-1,3-3H]-oleoyl glycerol hydrolysis, activated carbon filtration)
Type: biochemical
Conditions: 300 nM [Glycerol-1,3-3H]-oleoyl glycerol, one hour
In short: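 Endogenous human MGL in HeLa cells/homogenates incubated 1 h with test compounds and 300 nM [glycerol-1,3-3H]-oleoyl glycerol. Released 3H-glycerol passing an activated carbon filter counted as activity; screening at 10 μM compound, top IC50 concentration set empirically.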

Chain of human MGL from HeLa cells (Q99685 whole entry): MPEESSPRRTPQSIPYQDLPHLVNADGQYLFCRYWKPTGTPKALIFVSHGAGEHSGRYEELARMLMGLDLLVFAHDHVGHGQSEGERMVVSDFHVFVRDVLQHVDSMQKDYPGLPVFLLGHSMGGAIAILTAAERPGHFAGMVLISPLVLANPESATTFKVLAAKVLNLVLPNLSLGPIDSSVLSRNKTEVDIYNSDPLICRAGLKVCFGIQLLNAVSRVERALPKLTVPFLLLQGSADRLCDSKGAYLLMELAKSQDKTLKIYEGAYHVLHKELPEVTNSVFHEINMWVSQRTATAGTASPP

SMILES | IC50 [nM]
C[C@]1(O)C[C@@H](C(=O)N2CC3(CCC(Oc4ccc(C5CC5)cn4)CC3)C2)C1 [Example 426, (7-((5-Cyclopropylpyridin-2-yl)oxy)-2-azaspiro[3.5]nonan-2-yl)((1s,3s)-3-hydroxy-3-methylcyclobutyl)methanone] | 20
C[C@]1(O)C[C@@H](C(=O)N2CC3(CCC(Oc4ccc(OC(F)(F)F)cn4)CC3)C2)C1 [Example 427, ((1s,3s)-3-Hydroxy-3-methylcyclobutyl)(7-((5-(trifluoromethoxy)pyridin-2-yl)oxy)-2-azaspiro[3.5]nonan-2-yl)methanone] | 28
Cc1ccc(OC2CCC3(CC2)CN(C(=O)[C@H]2C[C@@](C)(O)C2)C3)nc1C [Example 428, (7-((5,6-Dimethylpyridin-2-yl)oxy)-2-azaspiro[3.5]nonan-2-yl)((1s,3s)-3-hydroxy-3-methylcyclobutyl)methanone] | 47
Cc1ccc(C)c(OC2CCC3(CC2)CN(C(=O)[C@H]2C[C@@](C)(O)C2)C3)n1 [Example 429, (7-((3,6-Dimethylpyridin-2-yl)oxy)-2-azaspiro[3.5]nonan-2-yl)((1s,3 s)-3-hydroxy-3-methylcyclobutyl)methanone] | 19
Cc1ccc(F)c(OC2CCC3(CC2)CN(C(=O)[C@H]2C[C@@](C)(O)C2)C3)n1 [Example 431, (7-((3-Fluoro-6-methylpyridin-2-yl)oxy)-2-azaspiro[3.5]nonan-2-yl)((1s,3s)-3-hydroxy-3-methylcyclobutyl)methanone] | 97
Cc1cnc(OC2CCC3(CC2)CN(C(=O)[C@H]2C[C@@](C)(O)C2)C3)c(F)c1 [Example 432, (7-((3-Fluoro-5-methylpyridin-2-yl)oxy)-2-azaspiro[3.5]nonan-2-yl)((1s,3s)-3-hydroxy-3-methylcyclobutyl)methanone] | 71
CCc1cnc(OC2CCC3(CC2)CN(C(=O)[C@H]2C[C@@](C)(O)C2)C3)c(F)c1 [Example 433, (7-((5-Ethyl-3-fluoropyridin-2-yl)oxy)-2-azaspiro[3.5]nonan-2-yl)((1s,3s)-3-hydroxy-3-methylcyclobutyl)methanone] | 14
Cc1nc(OC2CCC3(CC2)CN(C(=O)[C@H]2C[C@@](C)(O)C2)C3)ccc1Cl [Example 434, (7-((5-Chloro-6-methylpyridin-2-yl)oxy)-2-azaspiro[3.5]nonan-2-yl)((1s,3s)-3-hydroxy-3-methylcyclobutyl)methanone] | 25

Now those with a lower IC50, led by results:

IC50 [nM] | SMILES
7.8 | CC(C)(C)c1cccc(OC2CCC3(CC2)CN(C(=O)[C@H]2C[C@@](C)(O)C2)C3)n1 [Example 425, (7-((6-(tert-Butyl)pyridin-2-yl)oxy)-2-azaspiro[3.5]nonan-2-yl)((1s,3s)-3-hydroxy-3-methylcyclobutyl)methanone]
12 | Cc1cnc(OC2CCC3(CC2)CN(C(=O)[C@H]2C[C@@](C)(O)C2)C3)c(C)c1 [Example 430, (7-((3,5-Dimethylpyridin-2-yl)oxy)-2-azaspiro[3.5]nonan-2-yl)((1s,3s)-3-hydroxy-3-methylcyclobutyl)methanone]
8.4 | Cc1ccc(Cl)c(OC2CCC3(CC2)CN(C(=O)[C@H]2C[C@@](C)(O)C2)C3)n1 [Example 435, (7-((3-Chloro-6-methylpyridin-2-yl)oxy)-2-azaspiro[3.5]nonan-2-yl)((1s,3s)-3-hydroxy-3-methylcyclobutyl)methanone]
13 | Cc1cnc(OC2CCC3(CC2)CN(C(=O)[C@H]2C[C@@](C)(O)C2)C3)c(Cl)c1 [Example 436, (7-((3-Chloro-5-methylpyridin-2-yl)oxy)-2-azaspiro[3.5]nonan-2-yl)((1s,3s)-3-hydroxy-3-methylcyclobutyl)methanone]
3.7 | Cc1cc(Cl)cnc1OC1CCC2(CC1)CN(C(=O)[C@H]1C[C@@](C)(O)C1)C2 [Example 437, (7-((5-Chloro-3-methylpyridin-2-yl)oxy)-2-azaspiro[3.5]nonan-2-yl)((1s,3s)-3-hydroxy-3-methylcyclobutyl)methanoneo]
